Laboratory results reported in PMC6199744, “Development of Chemical Proteomics for the Folateome and Analysis of the Kinetoplastid Folateome” (ACS Infectious Diseases, 2018).

System: L. major lysate proteins
Experiment: Multitargeted bead mixture chemoproteomics, single concentration competition, proteome-wide
Type: binding

Compound: NCCOCCOCC(=O)Nc1nc2ncc(CNc3ccc(C(=O)NC(CCC(=O)O)C(=O)O)cc3)nc2c(=O)[nH]1 (stereo not shown) [compound 6]
- fold change (protein LMJF.35.0420 40S RIBOSOMAL PROTEIN S3A, PUTATIVE, vehicle control = 1): 1.15
- fold change relative to vehicle control (protein LMJF.35.1220, SHORT CHAIN DEHYDROGENASE, PUTATIVE): 1.09
- fold change relative to vehicle control (protein LMJF.35.1380, MIT[…], BETA SUBUNIT, PUTATIVE): 1.08
- fold change vs vehicle control (protein LMJF.35.1830 HYPOTHETICAL PROTEIN, CONSERVED): 0.93
- fold change vs vehicle control (protein LMJF.35.3340 6-phosphogluconate dehydrogenase): 0.99
- fold change (protein LMJF.35.3700 GIM5A PROTEIN, PUTATIVE,GLYCOSOMAL MEMBRANE PROTEIN, vehicle control = 1): 0.99
- fold change vs vehicle control (protein LMJF.35.3760 60S RIBOSOMAL PROTEIN L27A/L29, PUTATIVE): 0.97
- fold change relative to vehicle control (protein LMJF.35.3840, […] 2 SUBUNIT, PUTATIVE): 1.14
- fold change vs vehicle control (protein LMJF.35.3860 T-COMPLEX PROTEIN 1, ETA SUBUNIT, PUTATIVE): 1
- fold change (protein LMJF.35.4420 MIT[…] TRANSPORTER, PUTATIVE, vehicle control = 1): 1.05
- fold change relative to vehicle control (protein LMJF.35.4880, HY[…], CONSERVED (TPR repeat, putative)): 1.34
- fold change relative to vehicle control (protein LMJF.35.5330, ISOPENTENYL-D[…]-ISOMERASE, PUTATIVE): 1.14
- fold change relative to vehicle control (protein LMJF.36.0070, STRESS-INDUCIBLE PROTEIN STI1 HOMOLOG): 1.56
- fold change (protein LMJF.36.0480 HYPOTHETICAL PROTEIN, CONSERVED, vehicle control = 1): 0.98
- fold change vs vehicle control (protein LMJF.36.0620 HYPOTHETICAL PROTEIN, CONSERVED): 0.81
- fold change vs vehicle control (protein LMJF.36.0930 40S RIBOSOMAL PROTEIN S18, PUTATIVE): 1.15
- fold change vs vehicle control (protein LMJF.36.0990 40S RIBOSOMAL PROTEIN S10, PUTATIVE): 0.99
- fold change (protein LMJF.36.1140 SHORT CHAIN 3-HYDROXYACYL-COA DEHYDROGENASE, PUTATIVE, vehicle control = 1): 0.82
- fold change relative to vehicle control (protein LMJF.36.1260, FRUCTOSE-1,6-BI[…]): 1.05
- fold change (protein LMJF.36.1340 N-ACETYLTRANSFERASE SUBUNIT NAT1, PUTATIVE, vehicle control = 1): 0.91
- fold change vs vehicle control (protein LMJF.36.1650 […] 5 SUBUNIT, PUTATIVE): 1.03
- fold change relative to vehicle control (protein LMJF.36.2380, STEROL 24-C-METHYLTRANSFERASE, PUTATIVE): 1
- fold change relative to vehicle control (protein LMJF.36.2660, DIHYDROLIPOAMIDE ACETYLTRANSFERASE PRECURSOR, PUTATIVE): 1
- fold change vs vehicle control (protein LMJF.36.2950 SUCCINYL-COA LIGASE GDP-FORMING] BETA-CHAIN, PUTATIVE): 1.06
- fold change vs vehicle control (protein LMJF.36.3210 14-3-3 PROTEIN-LIKE PROTEIN): 0.97
- fold change vs vehicle control (protein LMJF.36.3410 SHORT CHAIN DEHYDROGENASE-LIKE PROTEIN): 1.22
- fold change (protein LMJF.36.3460 HYPOTHETICAL PROTEIN, CONSERVED (NIPSNAP, putative), vehicle control = 1): 1.1
- fold change (protein LMJF.36.3580 HYPOTHETICAL PROTEIN, CONSERVED (Protein of unknown function (DUF2009), putative), vehicle control = 1): 0.92
- fold change (protein LMJF.36.3750 40S RIBOSOMAL PROTEIN S27-1, PUTATIVE, vehicle control = 1): 0.73
- fold change vs vehicle control (protein LMJF.36.5010 40S RIBOSOMAL PROTEIN SA, PUTATIVE): 1.07
- fold change vs vehicle control (protein LMJF.36.5130 HY[…], CONSERVED): 1.09
- fold change vs vehicle control (protein LMJF.36.5150 HY[…], CONSERVED): 1.01
- fold change relative to vehicle control (protein LMJF.36.5380, NADH DEHYDROGENASE, PUTATIVE): 0.94
- fold change vs vehicle control (protein LMJF.36.5390 PHOSPHORIBOSYLPYROPHOSPHATE SYNTHETASE, PUTATIVE): 0.99
- fold change vs vehicle control (protein LMJF.36.5620 ISOLEUCYL-TRNA SYNTHETASE, PUTATIVE): 1.03
- fold change (protein LMJF.36.6430 PROTEIN TRANSPORT PROTEIN SEC23-LIKE PROTEIN, vehicle control = 1): 0.83
- fold change vs vehicle control (protein LMJF.36.6760 HY[…], CONSERVED): 1.01
- fold change relative to vehicle control (protein LMJF.[…], MIT[…] BETA SUBUNIT, PUTATIVE): 0.95
- fold change relative to vehicle control (protein LMJF.[…], POLY(A) EXPORT PROTEIN, PUTATIVE): 1.14
- fold change (vs vehicle control, protein LINJ.20.0630 CYTIDINE TR[…], PUTATIVE,CTP SYNTHASE, PUTATIVE): 1.07
- fold change (vs vehicle control, protein LINJ.20.1390 COATOMER BETA SUBUNIT, PUTATIVE): 0.82
- fold change (vs vehicle control, protein LMJF.05.1140 VACUOLAR ATPASE SUBUNIT-LIKE PROTEIN): 0.91
- fold change (vs vehicle control, protein LMJF.07.1090 DELTA-5 FATTY ACID DESATURASE): 1
- fold change (vs vehicle control, protein LMJF.09.0220 HYPOTHETICAL PROTEIN, CONSERVED): 0.97
- fold change (vs vehicle control, protein LMJF.11.1030 HYPOTHETICAL PROTEIN, CONSERVED): 0.98
- fold change (vs vehicle control, protein LMJF.14.0640 FATTY ACID ELONGASE, PUTATIVE): 0.92
- fold change (vs vehicle control, protein LMJF.14.0705 FATTY ACID ELONGASE, PUTATIVE): 0.88
- fold change (vs vehicle control, protein LMJF.14.1120 KINESIN K39, PUTATIVE): 0.71
- fold change (vs vehicle control, protein LMJF.16.1610 PROHIBITIN): 1.16
- fold change (vs vehicle control, protein LMJF.17.0010 HYPOTHETICAL PROTEIN, CONSERVED): 0.97
- fold change (vs vehicle control, protein LMJF.18.1130 RAS-RELATED PROTEIN RAB-5, PUTATIVE): 0.75
- fold change (vs vehicle control, protein LMJF.19.1420 CYSTEINE PEPTIDASE A (CPA)): 0.86
- fold change (vs vehicle control, protein LMJF.21.0280 HY[…], CONSERVED): 0.84
- fold change (vs vehicle control, protein LMJF.22.1560 40S RIBOSOMAL PROTEIN L14, PUTATIVE): 0.78
- fold change (vs vehicle control, protein LMJF.23.1220 T-COMPLEX PROTEIN 1, GAMMA SUBUNIT, PUTATIVE): 1.06
- fold change (vs vehicle control, protein LMJF.24.0370 ASPARTATE AMINOTRANSFERASE, PUTATIVE): 1.14
- fold change (vs vehicle control, protein LMJF.25.1770 ENOYL-COA REDUCTASE, PUTATIVE): 1.08
- fold change (vs vehicle control, protein LMJF.26.0170 60S RIBOSOMAL PROTEIN L7, PUTATIVE): 0.82
- fold change (vs vehicle control, protein LMJF.26.1550 TRI[…] ALPHA SUBUNIT, MIT[…]-LIKE PROTEIN): 1.11
- fold change (vs vehicle control, protein LMJF.26.1610 PROLINE OXIDASE, MIT[…]-LIKE PROTEIN): 1.02
- fold change (vs vehicle control, protein LMJF.28.1950 X-PRO, DIPEPTIDYL-PEPTIDASE,SERINE PEPTIDASE, CLAN SC, FAMILY S15, PUTATIVE): 0.94
- fold change (vs vehicle control, protein LMJF.31.1070 BIOTIN/LIPOATE PROTEIN LIGASE-LIKE PROTEIN): 0.89
- fold change (vs vehicle control, protein LMJF.32.1370 HYPOTHETICAL PROTEIN, CONSERVED): 0.94
- fold change (vs vehicle control, protein LMJF.34.0490 IMPORTIN BETA-1 SUBUNIT, PUTATIVE): 0.96
- fold change (vs vehicle control, protein LMJF.34.4060 UBIQUITIN HYDROLASE, PUTATIVE,CYSTEINE PEPTIDASE, CLAN CA, FAMILY C19, PUTATIVE): 0.85
- fold change (vs vehicle control, protein LMJF.36.1600 […] 1 SUBUNIT, PUTATIVE): 0.96
- fold change (vs vehicle control, protein LMJF.[…] RIBOSOMAL PROTEIN S7, PUTATIVE): 1.2
